Where only a bound is given, the exact number is not on record here.

This experiment has as its target T1, recombinant human Syk (GST-hSyk fusion protein) (Homo sapiens, UniProt P43405).
T1 construct: purchased Carna Biosciences 08-176
Description: Homogeneous Time-Resolved Fluorescence (HTRF) assay for the recombinant human Syk enzyme. The note with it: IC50 class; 10-dose titration, 25 μM ATP; read-out: rhSYK Activity. Type of experiment: biochemical. Put shortly:
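IC50 came from a four-parameter fit over ten doses, 10 μM to 0.508 nM, with HTRF read-out (Eu-anti-pTyr antibody, SA-APC, EDTA stop, 30 min). The enzyme, 5 pM GST-hSyk, met compound for 10 min, then phosphorylated 250 nM biotin-peptide with 25 μM ATP and 5 mM Mg for 45 min at room temperature, pH 7.5.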
Turning to `CCOC(=O)CCc1cnn(-c2cc(C)cc(Nc3nccc(C(F)(F)F)n3)c2)c1` [Example 19.2, Ethyl 3-[1-(3-methyl-5-{[4-(trifluoromethyl)-pyrimidin-2-yl]amino}phenyl)-1H-pyrazol-4-yl]propanoate], the IC50 was in the range of 0.1 to 1 µM.

In the case of `Cc1cc(Nc2nccc(C3CC3)n2)cc(-n2cc(CCC(=O)O)cn2)c1` [Example 19.3, 3-(1-{3-[(4-cyclopropylpyrimidin-2-yl)amino]-5-methylphenyl}-1H-pyrazol-4-yl)propanoic acid], the IC50 is at most 0.1 µM. As for `CCOC(=O)CCc1cnn(-c2cc(C)cc(Nc3nccc(C4CC4)n3)c2)c1` [Example 19.4, Ethyl 3-(1-{3-[(4-cyclopropylpyrimidin-2-yl)amino]-5-methylphenyl}-1H-pyrazol-4-yl)propanoate], the IC50 was 0.1 to 1 µM. `CCOC(=O)CCc1cnn(-c2cc(C)cc(Nc3nccc(OC)n3)c2)c1` [Example 19.5, Ethyl 3-(1-{3-[(4-methoxypyrimidin-2-yl)amino]-5-methylphenyl}-1H-pyrazol-4-yl)propanoate]: the IC50 was in the range of 0.1 to 1 µM. The value for `CCOC(=O)CCc1cnn(-c2cc(C)cc(Nc3nccc(C)n3)c2)c1` [Example 19.6, Ethyl 3-(1-{3-methyl-5-[(4-methyl-pyrimidin-2-yl)amino]-phenyl}-1H-pyrazol-4-yl)propanoate] was 0.1 to 1 µM; that for `Cc1cc(Nc2nccc(C(F)(F)F)n2)cc(-n2cc(C3(O)CCC(C(=O)O)CC3)cn2)c1` (stereo not drawn) [Example 19.10, 4-hydroxy-4-[1-(3-methyl-5-{[4-(trifluoromethyl)pyrimidin-2-yl]amino}phenyl)-1H-pyrazol-4-yl]cyclohexanecarboxylic acid] was 0.1 to 1 µM. The value for `Cc1cc(Nc2nccc(C(F)(F)F)n2)cc(-n2cc(C3(O)CCC(C(=O)O)CC3)cn2)c1` (stereo not drawn) [Example 19.11, 4-hydroxy-4-[1-(3-methyl-5-{[4-(trifluoromethyl)pyrimidin-2-yl]amino}phenyl)-1H-pyrazol-4-yl]cyclohexanecarboxylic acid] was at most 0.1 µM; that for `Cc1cc(Nc2nccc(C(F)(F)F)n2)cc(-n2cc(C(C)(O)[C@H]3CC[C@H](C(=O)O)CC3)cn2)c1` (stereo partly drawn) [Example 19.12, trans-4-{1-hydroxy-1-[1-(3 methyl-5-{[4-(trifluoromethyl)pyrimidin-2-yl]amino}phenyl)-1H-pyrazol-4-yl]ethyl}cyclohexanecarboxylic acid] was at most 0.1 µM; that for `Cc1cc(Nc2nccc(C(F)(F)F)n2)cc(-n2cc(C(C)(O)[C@H]3CC[C@H](C(=O)O)CC3)cn2)c1` (stereo partly drawn) [Example 19.13, trans-4-{1-hydroxy-1-[1-(3-methyl-5-{[4-(trifluoromethyl)pyrimidin-2-yl]amino}phenyl)-1H-pyrazol-4-yl]ethyl}cyclohexanecarboxylic acid] was at most 0.1 µM. Consider `Cc1cc(Nc2nccc(C(F)(F)F)n2)cc(-n2cc(C3(O)CCC(C(=O)O)C(C)(C)C3)cn2)c1` (stereo not drawn) [Example 19.14, 4-hydroxy-2,2-dimethyl-4-[1-(3-methyl-5-{[4-(trifluoromethyl)pyrimidin-2-yl]amino}phenyl)-1H-pyrazol-4-yl]cyclohexanecarboxylic acid], for which the IC50 fell in the range of 0.1 to 1 µM.

On to `Cc1cc(Nc2nccc(C(F)(F)F)n2)cc(-n2cc(C3(O)CCC(C(=O)O)C(C)(C)C3)cn2)c1` (stereo not drawn) [Example 19.15, 4-hydroxy-2,2-dimethyl-4-[1-(3-methyl-5-{[4-(trifluoromethyl)pyrimidin-2-yl]amino}phenyl)-1H-pyrazol-4-yl]cyclohexanecarboxylic acid], for which the IC50 lay within 0.1 to 1 µM.

On to `Cc1cc(Nc2nccc(C(F)(F)F)n2)cc(-c2cnn(CC(C)(O)CC#N)c2)c1` (stereo not drawn) [Example 20.2, 3-hydroxy-3-methyl-4-[4-(3-methyl-5-{[4-(trifluoromethyl)pyrimidin-2-yl]amino}phenyl)-1H-pyrazol-1-yl]butanenitrile], for which the IC50 is at most 0.1 µM.

The values are drawn from patent publication US9242984B2, “Pyrazolyl derivatives as Syk inhibitors” (Merck Sharp & Dohme Corp., priority 2012, dated 2016).
